Like-named read-outs stand apart in the source and are kept apart here.
Key:
Type in all cases: in vivo
[1] = system: Alopecurus myosuroides (ALOMY); assay: Pre-emergence herbicidal action against ALOMY; conditions: scored visually after about 3 weeks, 100% = plants have died
Summary of the method: (§1)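 Seeds sown in pots and covered with soil; WP or EC formulations sprayed onto the soil surface at 600 l/ha water with 0.5% additive, at 320 g/ha or lower. Greenhouse growth for about 3 weeks, then visual scoring as % effect against untreated controls (100% = plants dead).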

[2] = system: Amaranthus retroflexus (AMARE); assay: Pre-emergence herbicidal action against AMARE; conditions: visual scoring after about 3 weeks vs untreated controls
Summary of the method: as §1

Avena fatua (AVEFA) [3] = assay: Pre-emergence herbicidal action against AVEFA; conditions: 320 g/ha, visual scoring after about 3 weeks vs untreated controls
Summary of the method: as §1

[4] = system: Echinochloa crus-galli (ECHCG); assay: Pre-emergence herbicidal action against ECHCG
Summary of the method: as §1

Lolium rigidum (LOLRI) [5] = assay: Pre-emergence herbicidal action against LOLRI
Summary of the method: as §1

[6] = system: Matricaria inodora (MATIN); assay: Pre-emergence herbicidal action against MATIN; conditions: dosage 320 g/ha
Summary of the method: as §1

[7] = system: Pharbitis purpurea (PHBPU); assay: Pre-emergence herbicidal action against PHBPU
Summary of the method: as §1

[8] = system: Polygonum convolvulus (POLCO); assay: Pre-emergence herbicidal action against POLCO
Summary of the method: as §1

Setaria viridis (SETVI) [9] = assay: Pre-emergence herbicidal action against SETVI; conditions: dosage 320 g/ha
Summary of the method: as §1

[10] = system: Verconica persica (VERPE); assay: Pre-emergence herbicidal action against VERPE; conditions: dosage 320 g/ha
Summary of the method: as §1

Viola tricolor (VIOTR) [11] = assay: Pre-emergence herbicidal action against VIOTR
Summary of the method: as §1

[12] = system: Alopecurus myosuroides (ALOMY); assay: Post-emergence herbicidal action against ALOMY; conditions: visual rating about 3 weeks after treatment vs untreated controls (100% = plants have died, 0% = like control plants)
Summary of the method: (§2)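 Greenhouse plants sprayed at the one-leaf stage, 2–3 weeks after sowing, with WP or EC formulations plus 0.5% additive at 600 l/ha water. Activity rated visually after about 3 weeks versus untreated controls (100% = dead, 0% = like control), at 320 g/ha or lower.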

[13] = system: Amaranthus retroflexus (AMARE); assay: Post-emergence herbicidal action against AMARE
Summary of the method: as §2

Avena fatua (AVEFA) [14] = assay: Post-emergence herbicidal action against AVEFA; conditions: visual rating about 3 weeks after treatment
Summary of the method: as §2

[15] = system: Echinochloa crus-galli (ECHCG); assay: Post-emergence herbicidal action against ECHCG
Summary of the method: as §2

Lolium rigidum (LOLRI) [16] = assay: Post-emergence herbicidal action against LOLRI
Summary of the method: as §2

[17] = system: Matricaria inodora (MATIN); assay: Post-emergence herbicidal action against MATIN
Summary of the method: as §2

[18] = system: Pharbitis purpurea (PHBPU); assay: Post-emergence herbicidal action against PHBPU; conditions: dosage 320 g/ha
Summary of the method: as §2

[19] = system: Polygonum convolvulus (POLCO); assay: Post-emergence herbicidal action against POLCO
Summary of the method: as §2

Setaria viridis (SETVI) [20] = assay: Post-emergence herbicidal action against SETVI
Summary of the method: as §2

[21] = system: Verconica persica (VERPE); assay: Post-emergence herbicidal action against VERPE
Summary of the method: as §2

Viola tricolor (VIOTR) [22] = assay: Post-emergence herbicidal action against VIOTR
Summary of the method: as §2

Oryza sativa (ORYSA) = conditions: crop plant compatibility
Summary of the method: (§3)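 Test crops were treated 2 to 3 weeks after sowing, once they reached one leaf, by spraying compound in water with 0.5% additive at 600 l/ha. Visual scoring compared them with untreated controls roughly 3 weeks on, and appendices a, b and c denote different doses.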

Zea mays (ZEAMX) = system: Zea mays (ZEAMX)
Summary of the method: as §3

[23] = system: Abutilon theophrasti (ABUTH); assay: Post-emergence herbicidal action against ABUTH; conditions: 80 g/ha, visual rating about 3 weeks after treatment vs untreated controls (100% = plants have died, 0% = like control plants)
Summary of the method: as §2

[24] = 80 g/ha, visual rating about 3 weeks after treatment vs untreated controls (100% = plants have died, 0% = like control plants)

Compound: CCOC(=O)COc1nn(-c2ncccc2C)c(-c2ccc(F)nc2)c1Br [Example I-321]
- Pre-emergence action against ALOMY ([1]; 320 g/ha): 100%
- Pre-emergence action against AMARE in % ([2]; 80 g/ha): 100%
- Pre-emergence action against AMARE in % ([2]; 320 g/ha): 100%
- Pre-emergence action against AVEFA in % (Avena fatua (AVEFA) [3]): 90%
- Pre-emergence action against ECHCG in % ([4]; dosage 80 g/ha): 100%
- Pre-emergence action against ECHCG in % ([4]; dosage 320 g/ha): 100%
- Pre-emergence action against LOLRI in % (Lolium rigidum (LOLRI) [5]; dosage 80 g/ha): 100%
- Pre-emergence action against LOLRI in % (Lolium rigidum (LOLRI) [5]; dosage 320 g/ha): 100%
- Pre-emergence action against MATIN in % [6]: 100%
- Pre-emergence action against PHBPU in % ([7]; dosage 80 g/ha): 80%
- Pre-emergence action against PHBPU in % ([7]; dosage 320 g/ha): 90%
- Pre-emergence action against POLCO in % ([8]; dosage 80 g/ha): 90%
- Pre-emergence action against POLCO in % ([8]; dosage 320 g/ha): 100%
- Pre-emergence action against SETVI in % (Setaria viridis (SETVI) [9]): 100%
- Pre-emergence action against VERPE in % [10]: 100%
- Pre-emergence action against VIOTR in % (Viola tricolor (VIOTR) [11]; 320 g/ha, Viola tricolor): 100%
- Pre-emergence action against VIOTR in % (Viola tricolor (VIOTR) [11]; dosage 80 g/ha): 90%
- Post-emergence action against ALOMY in % ([12]; 80 g/ha): 90%
- Post-emergence action against ALOMY in % ([12]; 320 g/ha): 100%
- Post-emergence action against AMARE in % [13, 24]: 80%
- Post-emergence action against AMARE in % ([13]; 320 g/ha, visual rating about 3 weeks after treatment): 80%
- Post-emergence action against AVEFA in % (Avena fatua (AVEFA) [14]; 80 g/ha): 90%
- Post-emergence action against AVEFA in % (Avena fatua (AVEFA) [14]; 320 g/ha): 90%
- Post-emergence action against ECHCG in % ([15]; dosage 80 g/ha): 90%
- Post-emergence action against ECHCG in % ([15]; dosage 320 g/ha): 90%
- Post-emergence action against LOLRI in % (Lolium rigidum (LOLRI) [16]; dosage 80 g/ha): 100%
- Post-emergence action against LOLRI in % (Lolium rigidum (LOLRI) [16]; dosage 320 g/ha): 100%
- Post-emergence action against MATIN in % ([17]; dosage 320 g/ha): 80%
- Post-emergence action against PHBPU in % [18]: 90%
- Post-emergence action against POLCO in % ([19]; dosage 80 g/ha): 80%
- Post-emergence action against POLCO in % ([19]; dosage 320 g/ha): 90%
- Post-emergence action against SETVI in % (Setaria viridis (SETVI) [20]; dosage 80 g/ha): 90%
- Post-emergence action against SETVI in % (Setaria viridis (SETVI) [20]; dosage 320 g/ha): 90%
- Post-emergence action against VERPE in % ([21]; 320 g/ha, VERPE): 90%
- Post-emergence action against VIOTR in % (Viola tricolor (VIOTR) [22]; 80 g/ha): 80%
- Post-emergence action against VIOTR in % (Viola tricolor (VIOTR) [22]; 320 g/ha): 80%
- Post-emergence action against ORYSA in % (Oryza sativa (ORYSA); 80 g/ha, effect in comparison to untreated controls): 0%
- Post-emergence action against ZEAMX in % (Zea mays (ZEAMX); crop plant compatibility, 80 g/ha, effect vs untreated controls): 0%

Compound: CC(C)=NOC(=O)[C@@H](C)Oc1nn(-c2ncccc2F)c(-c2ccc(F)nc2)c1Br [Example I-374]
- Pre-emergence action against ALOMY ([1]; 80 g/ha): 90%
- Pre-emergence action against ALOMY ([1]; 320 g/ha): 100%
- Pre-emergence action against AMARE in % ([2]; 80 g/ha): 100%
- Pre-emergence action against AMARE in % ([2]; 320 g/ha): 100%
- Pre-emergence action against AVEFA in % (Avena fatua (AVEFA) [3]): 100%
- Pre-emergence action against ECHCG in % ([4]; dosage 320 g/ha): 100%
- Pre-emergence action against LOLRI in % (Lolium rigidum (LOLRI) [5]; dosage 80 g/ha): 80%
- Pre-emergence action against LOLRI in % (Lolium rigidum (LOLRI) [5]; dosage 320 g/ha): 100%
- Pre-emergence action against MATIN in % [6]: 90%
- Pre-emergence action against PHBPU in % ([7]; dosage 320 g/ha): 90%
- Pre-emergence action against POLCO in % ([8]; dosage 80 g/ha): 80%
- Pre-emergence action against POLCO in % ([8]; dosage 320 g/ha): 90%
- Pre-emergence action against SETVI in % (Setaria viridis (SETVI) [9]): 100%
- Pre-emergence action against VERPE in % [10]: 100%
- Pre-emergence action against VIOTR in % (Viola tricolor (VIOTR) [11]; 320 g/ha, Viola tricolor): 100%
- Pre-emergence action against VIOTR in % (Viola tricolor (VIOTR) [11]; dosage 80 g/ha): 90%
- Post-emergence action against ABUTH in % [23]: 80%
- Post-emergence action against ALOMY in % ([12]; 80 g/ha): 100%
- Post-emergence action against AMARE in % [13, 24]: 80%
- Post-emergence action against AVEFA in % (Avena fatua (AVEFA) [14]; 80 g/ha): 90%
- Post-emergence action against LOLRI in % (Lolium rigidum (LOLRI) [16]; dosage 80 g/ha): 90%
- Post-emergence action against MATIN in % ([17]; dosage 80 g/ha): 80%
- Post-emergence action against SETVI in % (Setaria viridis (SETVI) [20]; dosage 80 g/ha): 90%
- Post-emergence action against VERPE in % ([21]; dosage 80 g/ha): 80%
- Post-emergence action against ORYSA in % (Oryza sativa (ORYSA); 20 g/ha, effect vs untreated controls): 10%
- Post-emergence action against ZEAMX in % (crop plant compatibility) (Zea mays (ZEAMX); 20 g/ha, ZEAMX, effect in comparison to untreated controls): 10%

From US20240041042A1, “1-(PYRIDYL)-5-AZINYLPYRAZOLE DERIVATIVES, AND THEIR USE FOR CONTROL OF UNDESIRED PLANT GROWTH” (Bayer Aktiengesellschaft, priority 2020, published 2024)
